{"source": "paper PMC5488202", "test": "Ring-closing metathesis (C=C formation) of fluorous-tagged (FDIPES) terminal dienes with Hoveyda-Grubbs 2nd generation catalyst (typically 2 mol%, 1-5 mol%), usually with 1,4-benzoquinone (4-10 mol%); quench P(CH2OH)3/Et3N/silica", "conditions": "MTBE, 2.0 mM, 55.0 °C"}
{"molecule": "CC(C)[Si](CCC(F)(F)C(F)(F)C(F)(F)C(F)(F)C(F)(F)C(F)(F)C(F)(F)C(F)(F)F)(OC[C@H]1CC=CCC[C@@H](O[Si](C)(C)C(C)(C)C)[C@H](C)CN(S(=O)(=O)C(F)(F)F)Cc2cccc(c2)CN1S(=O)(=O)c1ccccc1[N+](=O)[O-])C(C)C", "note": "[29 (14+11; E/Z 15:85)]", "values": [{"measurement": "ring closure, isolated yield", "setting": "from C=CCC[C@@H](O[Si](C)(C)C(C)(C)C)[C@H](C)CN(Cc1cccc(CN([C@H](CC=C)CO[Si](CCC(F)(F)C(F)(F)C(F)(F)C(F)(F)C(F)(F)C(F)(F)C(F)(F)C(F)(F)F)(C(C)C)C(C)C)S(=O)(=O)c2ccccc2[N+](=O)[O-])c1)S(=O)(=O)C(F)(F)F, 16-membered ring, 4.0 h", "result": 78, "unit": "%"}]}
{"molecule": "CC(C)[Si](CCC(F)(F)C(F)(F)C(F)(F)C(F)(F)C(F)(F)C(F)(F)C(F)(F)C(F)(F)F)(OC[C@@H]1COCC=CCC[C@@H](O[Si](C)(C)C(C)(C)C)[C@H](C)CN(S(=O)(=O)C(F)(F)F)Cc2ccccc2CN1S(=O)(=O)c1ccccc1[N+](=O)[O-])C(C)C", "note": "[34 (16+11; E/Z >98:<2)]", "values": [{"measurement": "ring closure, isolated yield", "setting": "from C=CCC[C@@H](O[Si](C)(C)C(C)(C)C)[C@H](C)CN(Cc1ccccc1CN([C@@H](COCC=C)CO[Si](CCC(F)(F)C(F)(F)C(F)(F)C(F)(F)C(F)(F)C(F)(F)C(F)(F)C(F)(F)F)(C(C)C)C(C)C)S(=O)(=O)c1ccccc1[N+](=O)[O-])S(=O)(=O)C(F)(F)F, 17-membered ring, 16.0 h", "result": 61, "unit": "%"}]}
{"molecule": "CC(C)[Si](CCC(F)(F)C(F)(F)C(F)(F)C(F)(F)C(F)(F)C(F)(F)C(F)(F)C(F)(F)F)(OC[C@H]1CC=CCOc2ccccc2COC(=O)N(S(=O)(=O)c2ccccc2[N+](=O)[O-])Cc2cccc(c2)CN1S(=O)(=O)c1ccccc1[N+](=O)[O-])C(C)C", "note": "(mixture of isomers) [28 (14+10; unchromatographed E/Z mixture)]", "values": [{"measurement": "ring closure, isolated yield", "setting": "from C=CCOc1ccccc1COC(=O)N(Cc1cccc(CN([C@H](CC=C)CO[Si](CCC(F)(F)C(F)(F)C(F)(F)C(F)(F)C(F)(F)C(F)(F)C(F)(F)C(F)(F)F)(C(C)C)C(C)C)S(=O)(=O)c2ccccc2[N+](=O)[O-])c1)S(=O)(=O)c1ccccc1[N+](=O)[O-], 18-membered ring, 24.0 h", "result": 88, "unit": "%"}]}
{"molecule": "CC(C)[Si](CCC(F)(F)C(F)(F)C(F)(F)C(F)(F)C(F)(F)C(F)(F)C(F)(F)C(F)(F)F)(OC[C@H]1COCC=CCOc2ccccc2COC(=O)N(S(=O)(=O)c2ccccc2[N+](=O)[O-])Cc2cccc(c2)CN1S(=O)(=O)c1ccccc1[N+](=O)[O-])C(C)C", "note": "[37 (17+10; E/Z 70:30)]", "values": [{"measurement": "ring closure, isolated yield", "setting": "from C=CCOC[C@H](CO[Si](CCC(F)(F)C(F)(F)C(F)(F)C(F)(F)C(F)(F)C(F)(F)C(F)(F)C(F)(F)F)(C(C)C)C(C)C)N(Cc1cccc(CN(C(=O)OCc2ccccc2OCC=C)S(=O)(=O)c2ccccc2[N+](=O)[O-])c1)S(=O)(=O)c1ccccc1[N+](=O)[O-], 20-membered ring, 60.0 h", "result": 78, "unit": "%"}]}
{"molecule": "COc1ccc([C@H]2COCC=CCOC[C@@H](CO[Si](CCC(F)(F)C(F)(F)C(F)(F)C(F)(F)C(F)(F)C(F)(F)C(F)(F)C(F)(F)F)(C(C)C)C(C)C)N(S(=O)(=O)c3ccccc3[N+](=O)[O-])Cc3ccccc3CN(S(=O)(=O)c3ccccc3[N+](=O)[O-])C(=O)OC2)c(OC)c1", "note": "[32 (16+9; E/Z >98:<2)]", "values": [{"measurement": "ring closure, isolated yield", "setting": "from C=CCOC[C@@H](COC(=O)N(Cc1ccccc1CN([C@@H](COCC=C)CO[Si](CCC(F)(F)C(F)(F)C(F)(F)C(F)(F)C(F)(F)C(F)(F)C(F)(F)C(F)(F)F)(C(C)C)C(C)C)S(=O)(=O)c1ccccc1[N+](=O)[O-])S(=O)(=O)c1ccccc1[N+](=O)[O-])c1ccc(OC)cc1OC, 19-membered ring, 36.0 h", "result": 88, "unit": "%"}]}
{"molecule": "CC(C)[Si](CCC(F)(F)C(F)(F)C(F)(F)C(F)(F)C(F)(F)C(F)(F)C(F)(F)C(F)(F)F)(OC[C@H]1COCC=CCC[C@@H](O[Si](C)(C)C(C)(C)C)[C@H](C)C(=O)N(S(=O)(=O)c2ccccc2[N+](=O)[O-])Cc2cccc(c2)CN1S(=O)(=O)c1ccccc1[N+](=O)[O-])C(C)C", "note": "[19 (from 18; Z 50% + E 40%)]", "values": [{"measurement": "ring closure, isolated yield", "setting": "from C=CCC[C@@H](O[Si](C)(C)C(C)(C)C)[C@H](C)C(=O)N(Cc1cccc(CN([C@H](COCC=C)CO[Si](CCC(F)(F)C(F)(F)C(F)(F)C(F)(F)C(F)(F)C(F)(F)C(F)(F)C(F)(F)F)(C(C)C)C(C)C)S(=O)(=O)c2ccccc2[N+](=O)[O-])c1)S(=O)(=O)c1ccccc1[N+](=O)[O-], 18-membered ring, 48.0 h", "result": 90, "unit": "%"}]}
{"molecule": "CC(C)[Si](CCC(F)(F)C(F)(F)C(F)(F)C(F)(F)C(F)(F)C(F)(F)C(F)(F)C(F)(F)F)(OC[C@H]1CC=CCOc2ccccc2COC(=O)N(S(=O)(=O)c2ccccc2[N+](=O)[O-])CC2=CC=C(CN1S(=O)(=O)c1ccccc1[N+](=O)[O-])S2)C(C)C", "note": "[31 (15+10; E/Z >98:<2)]", "values": [{"measurement": "ring closure, isolated yield", "setting": "from C=CCOc1ccccc1COC(=O)N(Cc1ccc(CN([C@H](CC=C)CO[Si](CCC(F)(F)C(F)(F)C(F)(F)C(F)(F)C(F)(F)C(F)(F)C(F)(F)C(F)(F)F)(C(C)C)C(C)C)S(=O)(=O)c2ccccc2[N+](=O)[O-])s1)S(=O)(=O)c1ccccc1[N+](=O)[O-], 18-membered ring, 16.0 h", "result": 60, "unit": "%"}]}
{"molecule": "CC(C)[Si](CCC(F)(F)C(F)(F)C(F)(F)C(F)(F)C(F)(F)C(F)(F)C(F)(F)C(F)(F)F)(OC[C@H]1CC=CCOc2ccccc2COC(=O)N(S(=O)(=O)c2ccccc2[N+](=O)[O-])Cc2ccccc2CN1S(=O)(=O)c1ccccc1[N+](=O)[O-])C(C)C", "note": "[25 (13+10; E/Z 65:35)]", "values": [{"measurement": "ring closure, isolated yield", "setting": "from C=CCOc1ccccc1COC(=O)N(Cc1ccccc1CN([C@H](CC=C)CO[Si](CCC(F)(F)C(F)(F)C(F)(F)C(F)(F)C(F)(F)C(F)(F)C(F)(F)C(F)(F)F)(C(C)C)C(C)C)S(=O)(=O)c1ccccc1[N+](=O)[O-])S(=O)(=O)c1ccccc1[N+](=O)[O-], 17-membered ring, 24.0 h", "result": 56, "unit": "%"}]}
{"molecule": "CC(C)[Si](CCC(F)(F)C(F)(F)C(F)(F)C(F)(F)C(F)(F)C(F)(F)C(F)(F)C(F)(F)F)(OC[C@H]1CC=CCC[C@@H](O[Si](C)(C)C(C)(C)C)[C@H](C)CN(S(=O)(=O)C(F)(F)F)Cc2ccccc2CN1S(=O)(=O)c1ccccc1[N+](=O)[O-])C(C)C", "note": "[23 (13+11, from 22; 2 steps RCM + denosylation; E/Z 30:70)]", "values": [{"measurement": "ring closure, isolated yield", "setting": "from C=CCC[C@@H](O[Si](C)(C)C(C)(C)C)[C@H](C)CN(Cc1ccccc1CN([C@H](CC=C)CO[Si](CCC(F)(F)C(F)(F)C(F)(F)C(F)(F)C(F)(F)C(F)(F)C(F)(F)C(F)(F)F)(C(C)C)C(C)C)S(=O)(=O)c1ccccc1[N+](=O)[O-])S(=O)(=O)C(F)(F)F, 15-membered ring", "result": 84, "unit": "%"}]}
{"molecule": "CC(C)[Si](CCC(F)(F)C(F)(F)C(F)(F)C(F)(F)C(F)(F)C(F)(F)C(F)(F)C(F)(F)F)(OC[C@@H]1COCC=CCOc2ccccc2COC(=O)N(S(=O)(=O)c2ccccc2[N+](=O)[O-])Cc2ccccc2CN1S(=O)(=O)c1ccccc1[N+](=O)[O-])C(C)C", "note": "[33 (16+10; E/Z >98:<2)]", "values": [{"measurement": "ring closure, isolated yield", "setting": "from C=CCOC[C@@H](CO[Si](CCC(F)(F)C(F)(F)C(F)(F)C(F)(F)C(F)(F)C(F)(F)C(F)(F)C(F)(F)F)(C(C)C)C(C)C)N(Cc1ccccc1CN(C(=O)OCc1ccccc1OCC=C)S(=O)(=O)c1ccccc1[N+](=O)[O-])S(=O)(=O)c1ccccc1[N+](=O)[O-], 19-membered ring, 48.0 h", "result": 75, "unit": "%"}]}
{"molecule": "CC(C)[Si](CCC(F)(F)C(F)(F)C(F)(F)C(F)(F)C(F)(F)C(F)(F)C(F)(F)C(F)(F)F)(OC[C@H]1CC=CCCN(S(=O)(=O)C(F)(F)F)Cc2cccc(c2)CN1S(=O)(=O)c1ccccc1[N+](=O)[O-])C(C)C", "note": "(mixture of isomers) [30 (14+12; E/Z mixture)]", "values": [{"measurement": "ring closure, isolated yield", "setting": "from C=CCCN(Cc1cccc(CN([C@H](CC=C)CO[Si](CCC(F)(F)C(F)(F)C(F)(F)C(F)(F)C(F)(F)C(F)(F)C(F)(F)C(F)(F)F)(C(C)C)C(C)C)S(=O)(=O)c2ccccc2[N+](=O)[O-])c1)S(=O)(=O)C(F)(F)F, 13-membered ring, 16.0 h", "result": 47, "unit": "%"}]}
{"molecule": "CC(C)[Si](CCC(F)(F)C(F)(F)C(F)(F)C(F)(F)C(F)(F)C(F)(F)C(F)(F)C(F)(F)F)(OC[C@H]1COCC=CCCN(S(=O)(=O)C(F)(F)F)Cc2cccc(c2)CN1S(=O)(=O)c1ccccc1[N+](=O)[O-])C(C)C", "note": "[38 (17+12; E 55% + Z 15%)]", "values": [{"measurement": "ring closure, isolated yield", "setting": "from C=CCCN(Cc1cccc(CN([C@H](COCC=C)CO[Si](CCC(F)(F)C(F)(F)C(F)(F)C(F)(F)C(F)(F)C(F)(F)C(F)(F)C(F)(F)F)(C(C)C)C(C)C)S(=O)(=O)c2ccccc2[N+](=O)[O-])c1)S(=O)(=O)C(F)(F)F, 15-membered ring, 48.0 h", "result": 70, "unit": "%"}]}
{"molecule": "COc1ccc([C@H]2COCC=CCOC[C@H](CO[Si](CCC(F)(F)C(F)(F)C(F)(F)C(F)(F)C(F)(F)C(F)(F)C(F)(F)C(F)(F)F)(C(C)C)C(C)C)N(S(=O)(=O)c3ccccc3[N+](=O)[O-])Cc3cccc(c3)CN(S(=O)(=O)c3ccccc3[N+](=O)[O-])C(=O)OC2)c(OC)c1", "note": "[36 (17+9; E/Z 25:75)]", "values": [{"measurement": "ring closure, isolated yield", "setting": "from C=CCOC[C@@H](COC(=O)N(Cc1cccc(CN([C@H](COCC=C)CO[Si](CCC(F)(F)C(F)(F)C(F)(F)C(F)(F)C(F)(F)C(F)(F)C(F)(F)C(F)(F)F)(C(C)C)C(C)C)S(=O)(=O)c2ccccc2[N+](=O)[O-])c1)S(=O)(=O)c1ccccc1[N+](=O)[O-])c1ccc(OC)cc1OC, 20-membered ring, 24.0 h", "result": 76, "unit": "%"}]}
{"molecule": "CC(C)[Si](CCC(F)(F)C(F)(F)C(F)(F)C(F)(F)C(F)(F)C(F)(F)C(F)(F)C(F)(F)F)(OC[C@H]1CC=CCCN(S(=O)(=O)C(F)(F)F)Cc2ccccc2CN1S(=O)(=O)c1ccccc1[N+](=O)[O-])C(C)C", "note": "[26 (13+12; E/Z >98:<2)]", "values": [{"measurement": "ring closure, isolated yield", "setting": "from C=CCCN(Cc1ccccc1CN([C@H](CC=C)CO[Si](CCC(F)(F)C(F)(F)C(F)(F)C(F)(F)C(F)(F)C(F)(F)C(F)(F)C(F)(F)F)(C(C)C)C(C)C)S(=O)(=O)c1ccccc1[N+](=O)[O-])S(=O)(=O)C(F)(F)F, 12-membered ring, 6.0 h", "result": 76, "unit": "%"}]}
